From patent US5087702A, “Microbial transformation process for producing an antihypertensive product” (Merck & Co., Inc., priority 1991, dated 1992)

Target: T1, Angiotensin II (A II) receptor (Oryctolagus cuniculus, UniProt P34976)
T1 construct: membrane preparation derived from rabbit aortae; tissue Pel-Freeze Biologicals; host or cells: frozen rabbit aortae, membrane preparation
T1 sequence (P34976 1-359): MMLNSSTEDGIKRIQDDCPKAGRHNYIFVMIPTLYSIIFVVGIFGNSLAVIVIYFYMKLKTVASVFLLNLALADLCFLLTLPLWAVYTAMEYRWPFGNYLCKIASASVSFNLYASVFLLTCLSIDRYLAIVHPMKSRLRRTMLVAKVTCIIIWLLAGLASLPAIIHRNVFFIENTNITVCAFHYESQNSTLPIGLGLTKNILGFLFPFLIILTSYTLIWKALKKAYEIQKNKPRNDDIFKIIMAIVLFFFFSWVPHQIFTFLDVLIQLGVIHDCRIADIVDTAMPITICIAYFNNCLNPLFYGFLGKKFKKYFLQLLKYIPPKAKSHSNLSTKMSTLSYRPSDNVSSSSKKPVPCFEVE
Assay: Receptor binding assay using rabbit aortae membrane preparation (displacement of 125I-Sar1Ile8-angiotensin II; the "IC50" assay)
Conditions: membrane preparation derived from rabbit aortae; 37° C., 90 minutes; read-out: inhibitory concentration (IC50) giving 50% displacement of the total specifically bound 125I-Sar1 Ile8-angiotensin II
Procedure: This assay is also referred to herein as the "IC50 " assay.
RECEPTOR BINDING ASSAY USING RABBIT AORTAE MEMBRANE PREPARATION
Three frozen rabbit aortae (obtained from Pel-Freeze Biologicals) were suspended in 5 mM Tris-0.25M Sucrose, pH 7.4 buffer (50 ml) homogenized, and then centifuged. The mixture was filtered through a cheesecloth and the supernatant was centrifuged for 30 minutes at 20,000 rpm at 4° C. The pellet thus obtained was resuspended in 30 ml of 50 mM Tris-5 mM MgCl2 buffer containing 0.2% Bovine Serum Albumin and 0.2 mg/ml Bacitration and the suspension was used for 100 assay tubes. Samples tested for screening were done in duplicate. To the membrane preparation (0.25 ml) there was added ^125 I-Sar^1 Ile^8 -angiotensin II [obtained from New England Nuclear] (10 ul; 20,000 cpm) with or without the test sample and the mixture was incubated at 37° C. for 90 minutes. The mixture was then diluted with ice-cold 50 mM Tris-0.9% NaCl, pH 7.4 (4 ml) and filtered through a glass fiber filter (GF/B Whatman 2.4" diameter). The filter was soaked in scintillation cocktail (10 ml) and counted for radioactivity using Packard 2660 Tricarb liquid scintillation counter. […]

## CCCc1nc2c(C)ccnc2n1Cc1ccc(-c2ccccc2-c2nnnn2CC2=CC(O)C(O)C(O)C2=O)cc1 (stereo not shown) [Compound I]
  IC50: < 50 µM
